Laboratory results published in patent US20200181117A1, “SUBSTITUTED 3-HETEROARYLOXY-1H-PYRAZOLES AND SALTS THEREOF AND THEIR USE AS HERBICIDAL ACTIVE SUBSTANCES” (BAYER CROPSCIENCE AKTIENGESELLSCHAFT, priority 2017, published 2020).

Experiments:
Format in all cases: in vivo
[1] = test system: Polygonum convolvulus; test: Post-emergence herbicidal action; conditions: 1280 g/ha, rated visually after about 3 weeks vs untreated controls
Experimental: (§1) A. Post-Emergence Herbicidal Action and Crop Plant Compatibility Seeds of monocotyledonous and dicotyledonous weeds and crop plants were placed in sandy loam in plastic or wood-fiber pots, covered with soil and cultivated in a greenhouse under controlled growth conditions. 2 to 3 weeks after sowing, the test plants were treated at the one-leaf stage. The compounds of the invention, formulated in the form of wettable powders (WP) or as emulsion concentrates (EC), were then sprayed onto the green parts of the plants as aqueous suspension or emulsion with addition of 0.5% additive at a water application rate of 600 l/ha (converted). After the test plants had been kept in the greenhouse under optimum growth conditions for about 3 weeks, the activity of the preparations was rated visually in comparison to untreated controls. For example, 100% activity=the plants have died, 0% activity=like control plants. Tables B1 to B15 below show the effects of selected compounds of the general formula (I) according to Table I on various harmful plants and an application rate corresponding to 1280 g/ha, which were obtained by the experimental procedure mentioned above.

[2] = test system: Stellaria media; test: Post-emergence herbicidal action; conditions: 1280 g/ha, rated visually after about 3 weeks vs untreated controls
Experimental: as §1

[3] = test system: Amaranthus retroflexus; test: Post-emergence herbicidal action; conditions: 1280 g/ha, rated visually after about 3 weeks vs untreated controls
Experimental: as §1

[4] = test system: Veronica persica; test: Post-emergence herbicidal action; conditions: 1280 g/ha, rated visually after about 3 weeks vs untreated controls
Experimental: as §1

[5] = test system: Amaranthus retroflexus; test: Pre-emergence herbicidal action; conditions: 1280 g/ha, scored visually after about 3 weeks vs untreated controls
Source text: (§2) Pre-Emergence Herbicidal Action and Crop Plant Compatibility Seeds of monocotyledonous and dicotyledonous weed plants and crop plants were placed in plastic or wood fiber pots and covered with soil. The compounds of the invention, formulated in the form of wettable powders (WP) or as emulsion concentrates (EC), were then applied onto the surface of the covering soil as aqueous suspension or emulsion with addition of 0.5% additive at a water application rate of 600 l/ha (converted). After the treatment, the pots were placed in a greenhouse and kept under good growth conditions for the test plants. After about 3 weeks, the effect of the preparations was scored visually in comparison with untreated controls as percentages. For example, 100% activity=the plants have died, 0% activity=like control plants. Tables C1 to C14 below show the effects of selected compounds of the general formula (I) according to Table I on various harmful plants and an application rate corresponding to 1280 g/ha, which were obtained by the experimental procedure mentioned above.

[6] = test system: Matricaria inodora; test: Pre-emergence herbicidal action; conditions: 1280 g/ha, scored visually after about 3 weeks vs untreated controls
Source text: as §2

[7] = test system: Veronica persica; test: Pre-emergence herbicidal action; conditions: 1280 g/ha, scored visually after about 3 weeks vs untreated controls
Source text: as §2

[8] = test system: Setaria viridis; test: Post-emergence herbicidal action; conditions: 1280 g/ha, rated visually after about 3 weeks vs untreated controls
Experimental: as §1

[9] = test system: Viola tricolor; test: Post-emergence herbicidal action; conditions: 1280 g/ha, rated visually after about 3 weeks vs untreated controls
Experimental: as §1

[10] = test system: Abutilon theophrasti; test: Post-emergence herbicidal action; conditions: 1280 g/ha, rated visually after about 3 weeks vs untreated controls
Experimental: as §1

[11] = test system: Pharbitis purpurea; test: Post-emergence herbicidal action; conditions: 1280 g/ha, rated visually after about 3 weeks vs untreated controls
Experimental: as §1

[12] = test system: Alopecurus myosuroides; test: Post-emergence herbicidal action; conditions: 1280 g/ha, rated visually after about 3 weeks vs untreated controls
Experimental: as §1

[13] = test system: Echinochloa crus-galli; test: Post-emergence herbicidal action; conditions: 1280 g/ha, rated visually after about 3 weeks vs untreated controls
Experimental: as §1

[14] = test system: Polygonum convolvulus; test: Pre-emergence herbicidal action; conditions: 1280 g/ha, scored visually after about 3 weeks vs untreated controls
Source text: as §2

[15] = test system: Stellaria media; test: Pre-emergence herbicidal action; conditions: 1280 g/ha, scored visually after about 3 weeks vs untreated controls
Source text: as §2

[16] = test system: Lolium rigidum; test: Pre-emergence herbicidal action; conditions: 1280 g/ha, scored visually after about 3 weeks vs untreated controls
Source text: as §2

[17] = test system: Setaria viridis; test: Pre-emergence herbicidal action; conditions: 1280 g/ha, scored visually after about 3 weeks vs untreated controls
Source text: as §2

[18] = test system: Viola tricolor; test: Pre-emergence herbicidal action; conditions: 1280 g/ha, scored visually after about 3 weeks vs untreated controls
Source text: as §2

[19] = test system: Hordeum murinum; test: Pre-emergence herbicidal action; conditions: 1280 g/ha, scored visually after about 3 weeks vs untreated controls
Source text: as §2

[20] = test system: Avena fatua; test: Pre-emergence herbicidal action; conditions: 1280 g/ha, scored visually after about 3 weeks vs untreated controls
Source text: as §2

[21] = test system: Abutilon theophrasti; test: Pre-emergence herbicidal action; conditions: 1280 g/ha, scored visually after about 3 weeks vs untreated controls
Source text: as §2

[22] = test system: Alopecurus myosuroides; test: Pre-emergence herbicidal action; conditions: 1280 g/ha, scored visually after about 3 weeks vs untreated controls
Source text: as §2

[23] = test system: Echinochloa crus-galli; test: Pre-emergence herbicidal action; conditions: 1280 g/ha, scored visually after about 3 weeks vs untreated controls
Source text: as §2

Cn1cc(Sc2ccc(F)cc2)c(Oc2ncccn2)n1 [Example I-032]
herbicidal activity on Polygonum convolvulus [1]: 90%
herbicidal activity on Stellaria media [2]: 100%
herbicidal activity on Amaranthus retroflexus [3]: 90%
herbicidal activity on Veronica persica [4]: 90%
herbicidal activity on Amaranthus retroflexus [5]: 80%
herbicidal activity on Matricaria inodora [6]: 90%
herbicidal activity on Veronica persica [7]: 90%

Cc1c(Sc2ccc(F)cc2F)c(Oc2ncccn2)nn1C [Example I-044, 2-[4-(2,4-Difluorophenyl)sulfanyl-1,5-dimethylpyrazol-3-yl]oxypyrimidine]
herbicidal activity on Polygonum convolvulus [1]: 100%
herbicidal activity on Stellaria media [2]: 100%
herbicidal activity on Amaranthus retroflexus [3]: 100%
herbicidal activity on Setaria viridis [8]: 100%
herbicidal activity on Viola tricolor [9]: 100%
herbicidal activity on Abutilon theophrasti [10]: 100%
herbicidal activity on Pharbitis purpurea [11]: 100%
herbicidal activity on Alopecurus myosuroides [12]: 90%
herbicidal activity on Echinochloa crus-galli [13]: 100%
herbicidal activity on Polygonum convolvulus [14]: 90%
herbicidal activity on Stellaria media [15]: 100%
herbicidal activity on Amaranthus retroflexus [5]: 100%
herbicidal activity on Lolium rigidum [16]: 90%
herbicidal activity on Setaria viridis [17]: 100%
herbicidal activity on Matricaria inodora [6]: 100%
herbicidal activity on Viola tricolor [18]: 100%
herbicidal activity on Hordeum murinum [19]: 90%
herbicidal activity on Avena fatua [20]: 100%
herbicidal activity on Abutilon theophrasti [21]: 100%
herbicidal activity on Veronica persica [7]: 100%
herbicidal activity on Alopecurus myosuroides [22]: 100%
herbicidal activity on Echinochloa crus-galli [23]: 100%

CCc1c(Sc2ccc(Cl)cc2)c(Oc2ncccn2)nn1C [Example I-058]
herbicidal activity on Stellaria media [2]: 100%
herbicidal activity on Amaranthus retroflexus [3]: 80%
herbicidal activity on Veronica persica [4]: 90%
herbicidal activity on Stellaria media [15]: 90%
herbicidal activity on Amaranthus retroflexus [5]: 100%
herbicidal activity on Viola tricolor [18]: 80%

Cn1cc(Sc2ccccc2)c(Oc2ncccn2)n1 [Example I-067]
herbicidal activity on Polygonum convolvulus [1]: 90%
herbicidal activity on Stellaria media [2]: 90%
herbicidal activity on Viola tricolor [9]: 80%
herbicidal activity on Veronica persica [4]: 100%
herbicidal activity on Polygonum convolvulus [14]: 90%
herbicidal activity on Stellaria media [15]: 90%
herbicidal activity on Amaranthus retroflexus [5]: 100%
herbicidal activity on Setaria viridis [17]: 100%
herbicidal activity on Matricaria inodora [6]: 100%
herbicidal activity on Viola tricolor [18]: 100%
herbicidal activity on Abutilon theophrasti [21]: 90%
herbicidal activity on Veronica persica [7]: 100%
herbicidal activity on Alopecurus myosuroides [22]: 90%
herbicidal activity on Echinochloa crus-galli [23]: 90%

Cc1c(Sc2cccc(Cl)c2)c(Oc2ncc(F)cn2)nn1C [Example I-091]
herbicidal activity on Amaranthus retroflexus [3]: 80%
herbicidal activity on Setaria viridis [8]: 100%
herbicidal activity on Viola tricolor [9]: 100%
herbicidal activity on Abutilon theophrasti [10]: 80%
herbicidal activity on Pharbitis purpurea [11]: 80%
herbicidal activity on Alopecurus myosuroides [12]: 80%
herbicidal activity on Echinochloa crus-galli [13]: 80%
herbicidal activity on Polygonum convolvulus [14]: 100%
herbicidal activity on Stellaria media [15]: 100%
herbicidal activity on Amaranthus retroflexus [5]: 100%
herbicidal activity on Lolium rigidum [16]: 90%
herbicidal activity on Setaria viridis [17]: 100%
herbicidal activity on Matricaria inodora [6]: 100%
herbicidal activity on Viola tricolor [18]: 100%
herbicidal activity on Hordeum murinum [19]: 100%
herbicidal activity on Avena fatua [20]: 90%
herbicidal activity on Abutilon theophrasti [21]: 100%
herbicidal activity on Veronica persica [7]: 100%
herbicidal activity on Alopecurus myosuroides [22]: 100%
herbicidal activity on Echinochloa crus-galli [23]: 100%

Cc1c(Sc2cccc(F)c2)c(Oc2ncccn2)nn1C [Example I-092]
herbicidal activity on Polygonum convolvulus [1]: 100%
herbicidal activity on Stellaria media [2]: 100%
herbicidal activity on Amaranthus retroflexus [3]: 100%
herbicidal activity on Setaria viridis [8]: 100%
herbicidal activity on Viola tricolor [9]: 100%
herbicidal activity on Abutilon theophrasti [10]: 100%
herbicidal activity on Pharbitis purpurea [11]: 80%
herbicidal activity on Alopecurus myosuroides [12]: 90%
herbicidal activity on Echinochloa crus-galli [13]: 100%
herbicidal activity on Polygonum convolvulus [14]: 90%
herbicidal activity on Stellaria media [15]: 90%
herbicidal activity on Amaranthus retroflexus [5]: 100%
herbicidal activity on Lolium rigidum [16]: 100%
herbicidal activity on Setaria viridis [17]: 100%
herbicidal activity on Matricaria inodora [6]: 100%
herbicidal activity on Viola tricolor [18]: 90%
herbicidal activity on Hordeum murinum [19]: 100%
herbicidal activity on Avena fatua [20]: 90%
herbicidal activity on Abutilon theophrasti [21]: 100%
herbicidal activity on Veronica persica [7]: 100%
herbicidal activity on Alopecurus myosuroides [22]: 100%
herbicidal activity on Echinochloa crus-galli [23]: 100%

CC(C)n1cc(Sc2ccc(F)cc2)c(Oc2ncc(Cl)cn2)n1 [Example I-137]
herbicidal activity on Amaranthus retroflexus [3]: 80%
herbicidal activity on Viola tricolor [9]: 100%
herbicidal activity on Veronica persica [4]: 90%
herbicidal activity on Polygonum convolvulus [14]: 100%
herbicidal activity on Stellaria media [15]: 100%
herbicidal activity on Amaranthus retroflexus [5]: 100%
herbicidal activity on Setaria viridis [17]: 100%
herbicidal activity on Viola tricolor [18]: 100%

Cc1c(Sc2cccc(C(F)(F)F)c2)c(Oc2ncccn2)nn1C [Example I-142]
herbicidal activity on Amaranthus retroflexus [3]: 90%
herbicidal activity on Abutilon theophrasti [10]: 80%
herbicidal activity on Veronica persica [4]: 80%
herbicidal activity on Polygonum convolvulus [14]: 100%
herbicidal activity on Stellaria media [15]: 90%
herbicidal activity on Amaranthus retroflexus [5]: 90%
herbicidal activity on Setaria viridis [17]: 100%
herbicidal activity on Viola tricolor [18]: 100%
herbicidal activity on Veronica persica [7]: 90%
herbicidal activity on Alopecurus myosuroides [22]: 80%

Cn1cc(Sc2ccc(Cl)cc2)c(Oc2ncc(Cl)cn2)n1 [Example I-188]
herbicidal activity on Amaranthus retroflexus [3]: 100%
herbicidal activity on Veronica persica [4]: 100%
herbicidal activity on Stellaria media [15]: 90%
herbicidal activity on Amaranthus retroflexus [5]: 100%
herbicidal activity on Setaria viridis [17]: 100%
herbicidal activity on Viola tricolor [18]: 100%
herbicidal activity on Echinochloa crus-galli [23]: 80%
